For 1 compound, ILS results are on record in ChEMBL document CHEMBL1121862, “Synthesis of 3-hydroxycyclophosphamide and studies related to its possible role in the metabolism of cyclophosphamide” (1981).

The species named for experiment [1] is Mus musculus. The experiment is described as follows: animal or person. The settings on record: ip.
Experiment [2] is filed under the species Mus musculus. As to the kind of experiment: animal or person. The settings on record: ip. This is another data set of the same source.

For orientation: ILS means how much longer treated animals lived than controls. A high value points to much gain in survival. Regarding `O=P1(N(CCCl)CCCl)NCCCO1` (configuration not stated) [CYCLOPHOSPHAMIDE ANHYDROUS], the increase in lifespan (ILS) at 100 mg/kg in the experiment filed under Mus musculus [1] is over 100%. This compound also came in with an ILS at 200 mg/kg in the experiment filed under Mus musculus [2] of over 150%.
